The values that follow come from patent US20160168140A1, “HETEROCYCLIC COMPOUNDS AS ANTIBIOTIC POTENTIATORS” (priority 2014, published 2016).

Each structure is given as a SMILES string.

The test system of test [1] is Acinetobacter baumannii (Ab23). Kind of test: MIC shift assay of antibiotics (broth microdilution). In kind it is cell-based. The conditions noted are these: Acinetobacter baumannii (Ab23); compound concentration 10 μM; MIC of colistin alone >8.0 μg/mL. In short, it runs like this:
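Following a modified Wiegand broth microdilution protocol, colistin serial dilutions with or without test compound were set up in round-bottom 96-well plates and inoculated with A. baumannii cells to a starting OD600 of 0.005. Plates were shaken at 37° C. for 18 to 20 h and read at OD600. The fold shift was calculated from colistin MIC alone versus colistin MIC with test compound, with growth and medium-only blank controls.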

For test [2], the system named is SOS response (sulAp-lacZ reporter) in E. coli strain DM4000. Nature of the test: Ciprofloxacin-induced SOS reporter gene expression assay (sulAp-lacZ, Beta-Glo luminescence, with or without PMBN). In kind it is cell-based. Particulars: Escherichia coli; in the presence of PMBN (4 μg/mL); read-out: SOS Attenuation EC50. The text has this:
An SOS reporter gene assay was used to assess the ability of the RecA inhibitor compounds to block the SOS response to ciprofloxacin. Details of the testing methodology are provided in, for example, Sandler et al., Genetics 143(1):5-13 (1996) and McCool et al., Mol Microbiol. 53(5):1343-57 (2004). The SOS genes are regulated by the transcriptional repressor LexA and the DNA-binding protein RecA. When DNA damage occurs, RecA binds to ssDNA, and this protein-DNA complex then induces the autocleavage of LexA, resulting in the depression of LexA-bound promoters. […] Therefore, a reporter construct wherein the sulA promoter (sulAp) is fused to the lacZ gene can be used to measure the level of the SOS response in cells using an assay for β-galactosidase activity.
E. coli strain DM4000 contains the sulAp-lacZ reporter gene inserted at the X attachment site. Two additional strains containing the same sulAp-lacZ reporter gene were used as RecA-independent controls in this assay. JC19098 encodes an un-cleaveable LexA repressor; therefore, the sulA promoter-dependent β-galactosidase expression is always off. […]
Luminescence was measured on a plate reader with the gain adjustment set to 40% of the maximum on a well with one of the highest luminescence values on the plate (e.g., a well containing ciprofloxacin without inhibitor). […]
In general terms: A reporter such as luciferase makes a cellular process visible.

A further test deals with T1, E. coli RecA (Escherichia coli, UniProt P0A7G6).
T1 construct: purchased New England BioLabs
Kind of test: RecA ssDNA-dependent ATPase assay (coupled enzyme, amplex red fluorescence). Type of test: biochemical. The conditions noted are these: read-out: RecA Inhibition IC50. As for the experimental part: A coupled enzyme ATPase assay, similar to that described in Wigle and Singleton, BioorgMed Chem Lett. 17(12):3249-53 (2007), was used to screen compounds for in vitro activity against RecA. A solution of the compound to be tested dissolved in DMSO (5 μL of 20× concentrated stock) was added to 90 μL of a master mix containing the following components at their final concentrations in the appropriate wells of flat-bottomed black 96-well plates (Corning Life Sciences, Corning N.Y.) at 37° C.: 0.5 μM E. coli RecA (New England BioLabs), 10 mM Mg(OAc)2 (Sigma, St. Louis, Mo.), 500 μM ATP (Sigma), 250 μM phosphoenolpyruvate (Sigma), 100 μM amplex red (Invitrogen, Carlsbad, Calif.), 1 U/mL pyruvate kinase (Sigma), 1 U/mL pyruvate oxidase (Thermo Fisher Scientific, Waltham, Mass.), 1 U/mL horseradish peroxidase (Sigma), and 20 mM Tris*HOAc, pH 7.5 (Boston BioProducts, Ashland, Mass.). The total volume of the assay solution was 100 μL. […]
The fluorescence emission at 595 nm (excitation at 485 nm) was then recorded using a microplate reader (PolarStar Optima, BMG Labtech, Ortenberg, Germany) for approximately 25 min to establish the baseline fluorescence.
To initiate the reactions, poly(dT) (5 μL of a 100 μM-nts stock solution) was added to each well to give a final DNA concentration of 5 μM-nts. Fluorescence emission was recorded for an additional 90 min. […]

A further test has as its system E. coli. Kind of test: MIC shift assay of antibiotics (broth microdilution). Type of test: cell-based. Particulars: E. coli (SCR1); compound concentration 10 μM; MIC of colistin alone 0.5-1.0 μg/mL. In short, it runs like this: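 Test compound held at 4 or 10 μM final while antibiotic MIC is determined by microdilution in cation-adjusted Mueller Hinton broth, inoculum OD600 0.005. Growth read as OD600 after 18-20 h shaking at 37 °C; MIC with compound compared against antibiotic alone.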
(In broth dilution the organism is exposed to a series of concentrations in liquid medium.)

T1 sequence (P0A7G6 2-353): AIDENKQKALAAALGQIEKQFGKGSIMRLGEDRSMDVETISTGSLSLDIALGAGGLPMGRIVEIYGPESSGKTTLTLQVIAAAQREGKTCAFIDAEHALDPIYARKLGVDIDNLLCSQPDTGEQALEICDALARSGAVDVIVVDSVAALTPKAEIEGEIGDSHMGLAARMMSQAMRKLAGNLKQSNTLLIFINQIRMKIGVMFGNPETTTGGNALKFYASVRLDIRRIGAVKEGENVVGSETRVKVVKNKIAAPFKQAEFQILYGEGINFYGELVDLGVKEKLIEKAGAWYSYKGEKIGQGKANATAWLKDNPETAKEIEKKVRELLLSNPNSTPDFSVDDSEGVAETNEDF

Consider `CN(C)CCCNc1nc(/C=C/c2ccc(Cl)c(Cl)c2)nc2c(C(F)(F)F)cccc12` [MLJ-02-070A], for which the results for the “Colistin MIC Shift” value (in test [1]; in the test on E. coli) were >128X and 16-32X, respectively. In addition, the EC50 in test [2] is < 6 µM. For the same compound, at E. coli RecA, the IC50 was 12 µM.

As for `Clc1ccc(/C=C/c2c[nH]c3ccc(Br)cc23)cc1Cl` [MLJ-02-086B], the entries for the “Colistin MIC Shift” value (in test [1]; in the test on E. coli) were >64X and 8-16X, respectively. Besides, the EC50 in test [2] is 8 µM. Also, at E. coli RecA, the IC50 came to 15 µM.

The term EC50 denotes the concentration giving half of the maximal effect. For orientation: IC50 means the concentration needed to halve the response being measured.
